The subject of one experiment is NEDD4-1. Also noted: method as in PMID 27979631. The conditions noted are these: cited from earlier work.
Experiment [1] deals with T1, WWP1 (His-tagged WWP1-L34H) (Homo sapiens, UniProt Q9H0M0).
T1 construct: WWP1- 2,3-linker-WW3-WW4-HECT (WWP1-L34H); made in house; host or cells: E. coli BL21-CodonPlus RP (plasmid pET32a-WWP1-L34H, gift of Dr Wenyu Wen)
Briefly: in vitro autoubiquitination assay (single shot and dose dependency), WWP1. The experiment is classed as biochemical. The protocol:
A single shot in vitro autoubiquitination assay was performed for I3C, DIM and each of the derivatives against WWP1 and WWP2 using a compound concentration of 1 mM (1% DMSO) (SI Figure S3). […] These active compounds were then subjected to a detailed dose dependency analysis leading to IC50 values. This strategy has previously been employed to screen other WWP1/WWP2 small molecule inhibitors as well as used to assess I3C inhibition toward NEDD4-1.[29],[32] In this way, compounds displaying a relative activity (RA) of less than 50% in the single shot assay were further screened for dose-dependency using a logarithmic concentration range from 10 nM to 1 mM (1% DMSO) (SI Figure S4). […] These were confirmed by counter assays to remove compounds possibly interacting with other enzymes in the assay or interfering with the assay directly (SI Table S1).
Cell lysate containing His-tagged WWP1-L34H or GST-tagged WWP2-FL proteins were incubated on either 96-well Clear Pierce glutathione or nickel-coated plates for 1 h. Reaction mixtures of either 3 ng/well GST-Uba1 and 15 ng/well UbcH7 or 10 ng/well His-Uba1 and 150 ng/well His-UbcH7 were incubated together in 25 mM Tris pH 8.0, 100 mM NaCl, 4 mM MgCl2 containing 60 ng/well FLAG-ubiquitin and 1.25 mM ATP for 40 min. A prior 1% BSA plate blocking step is required for nickel-coated plates. After plate washing, 2 μL of the compound was added at the desired concentration (1% DMSO) followed by 18 μL of the reaction mixture. This was then incubated for 2 h with 0 and 100% controls before 100 μL of anti-FLAG M2-Peroxidase HRP (1:10,000 PBST) was added to each well and incubated for 1 h. Finally, 100 μL of 1 × TMB substrate solution (Invitrogen) was added to each well and incubated for up to 10 min until sufficient blue color change was observed. To stop the reaction, 100 μL of 1 M HCl was added. For the counter assay, 3 ng/well GST-Uba1 and 200 ng/well UbcH7 were incubated with the other reaction mixture components for 1 h before incubating onto plates for a further 1 h. All other steps were followed. The plates were washed three times with PBST (and 15 mM Imidazole) between each step. Quantification was measured by absorbance read at 450 nm. All assay optimizations were as previously reported.[32] IC50 nonlinear regression curves were calculated in GraphPad v10.2 (Prism). […]
Auto-ubiquitination Assay
Cell lysate containing His-tagged WWP1-L34H or GST-tagged WWP2-FL proteins were incubated on either 96-well Clear Pierce glutathione 2 or nickel-coated plates for 1 hour. Reaction mixtures of either 3 ng/well GST-Uba1 and 15 ng/well UbcH7 or 10 ng/well His-Uba1 and 150 ng/well His-UbcH7 were incubated together in 25 mM Tris pH 8.0, 100 mM NaCl, 4 mM MgCl2 containing 60 ng/well FLAG-ubiquitin and 1.25 mM ATP for 40 minutes. A prior 1 % BSA plate blocking step is required for nickel-coated plates. After plate washing, 2 μL of the compound was added at the desired concentration (1 % DMSO) followed by 18 μL of the reaction mixture. This was then incubated for 2 hours with 0% and 100% controls before 100 μL of anti-FLAG M2-Peroxidase HRP (1: 10,000 PBST) was added to each well and incubated for 1 hour.
Finally, 100 μL of 1 × TMB substrate solution (Invitrogen) was added to each well and […]
incubated for up to 10 minutes until sufficient blue colour change was observed. To stop the reaction, 100 μL of 1 M HCl was added. For the counter assay, 3 ng/well GST-Uba1 and 200 ng/well UbcH7 were incubated with the other reaction mixture components for 1 hour before incubating onto plates for a further 1 hour. All other steps were followed.
The plates were washed three times with PBST (and 15 mM Imidazole) between each step. Quantification was measured by absorbance read at 450 nm. All assay optimisations have been previously reported by Watt and colleagues3.
Relative activity (RA) was determined by comparing the autoubiquitination of the WWP ligases in the presence of each compound, i.e TMB absorbance (450 nm), to the […]

In another experiment the target is WWP1 HECT domain. Further details: method as in PMID 31097636. As to conditions: microscale thermophoresis, read-out: KD (dissociation constant) WWP1; cited from earlier work.

The structures appear in SMILES notation. “And” between values parts separate entries of the source, which are not always exact repeats. Equal values may be shown once.

As a reminder, the IC50 is the midpoint of a concentration-inhibition curve. Broadly, the Kd is the constant that tells how readily two partners part at equilibrium.

T1 sequence (Q9H0M0 415-922, stated change not applied): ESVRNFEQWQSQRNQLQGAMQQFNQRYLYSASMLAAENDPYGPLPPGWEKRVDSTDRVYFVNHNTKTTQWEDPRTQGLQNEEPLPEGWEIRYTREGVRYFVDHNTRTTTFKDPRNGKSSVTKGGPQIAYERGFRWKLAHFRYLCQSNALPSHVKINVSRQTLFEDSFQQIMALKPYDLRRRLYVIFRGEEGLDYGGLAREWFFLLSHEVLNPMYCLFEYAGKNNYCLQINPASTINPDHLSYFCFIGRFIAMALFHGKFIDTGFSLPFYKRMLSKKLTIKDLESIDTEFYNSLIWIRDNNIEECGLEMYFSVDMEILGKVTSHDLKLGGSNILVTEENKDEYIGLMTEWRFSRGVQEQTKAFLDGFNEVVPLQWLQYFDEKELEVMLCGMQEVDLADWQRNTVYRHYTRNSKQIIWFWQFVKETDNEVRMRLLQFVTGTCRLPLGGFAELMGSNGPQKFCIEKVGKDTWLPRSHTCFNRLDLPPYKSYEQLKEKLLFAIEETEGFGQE

Take `OCc1c[nH]c2ccccc12` [Compound I3C, Indole-3-carbinol, reference compound]: the IC50 in the experiment on NEDD4-1 is 284 µM; in experiment [1] (nonlinear regression of RA against log concentration, 1 mM to 10 nM, 1% DMSO), ~1010 µM and 1010 µM. Also, the “inhibition of WWP1 (in words)” value in experiment [1] (autoubiquitination assay) is on record as “displayed inhibition”. In experiment [1] (single shot, compound at 1 mM (1% DMSO), standardized to 0 and 100% controls), the “WWP1 RA (%) relative activity” value is 48.2 ± 8.6% and 48.2%. Moreover, the Kd on WWP1 HECT domain is 0.45 µM.

(Values after publication PMC11840788, “3,3′-Diindolylmethane (DIM): A Molecular Scaffold for Inhibition of WWP1 and WWP2, Members of the NEDD4 Family HECT E3 Ligases” (ACS Omega, 2025).)
